Like-named read-outs stand apart in the source and are kept apart here.
Test system: healthy volunteers
Details: in vivo
Excerpt: 3 cohorts of subjects, in total 34 healthy adult volunteers, were recruited for Part A study.
Part B was an open label non-randomized crossover in a cohort of 6 evaluable healthy adult volunteers.
Adverse events were monitored and recorded.

## O=C(NCC1CCCCN1)c1cc(OCC(F)(F)F)ccc1OCC(F)(F)F (stereo not drawn) [flecainide]
both, human
  Adverse Event: Cough: 1
  Adverse Event: Lightheadedness: 1
  Number of Moderate or Severe TEAEs: 3
  Number of Study Drug Related TEAEs: 43
  Number of Study Drug Related, Moderate or Severe TEAEs: 2
  Number of TEAEs: 59
  Subjects with at least one Moderate or Severe TEAE: 2 (8) n (%)
  Subjects with at least one Study Drug Related TEAE: 22 (80) n (%)
  Subjects with at least one Study Drug Related, Moderate or Severe TEAE: 1 (4) n (%)
  Subjects with at least one TEAE: 22 (88) n (%)
  TEAE: Catheter site pain: 2 (8) [2] n (%) [events]
  TEAE: Cough: 3 (12) [4] n (%) [events]
  TEAE: Diarrhoea: 2 (8) [2] n (%) [events]
  TEAE: Dizziness: 3 (12) [3] n (%) [events]
  TEAE: Dry mouth: 3 (12) [3] n (%) [events]
  TEAE: Dysgeusia: 2 (8) [2] n (%) [events]
  TEAE: Dyspnoea: 6 (24) [6] n (%) [events]
  TEAE: Gastrointestinal disorders: 8 (32) [11] n (%) [events]
  TEAE: General disorders and administration site conditions: 3 (12) [4] n (%) [events]
  TEAE: Headache: 4 (16) [5] n (%) [events]
  TEAE: Nervous system disorders: 8 (32) [11] n (%) [events]
  TEAE: Oropharyngeal discomfort: 11 (44) [11] n (%) [events]
  TEAE: Respiratory, thoracic and mediastinal disorders: 17 (68) [25] n (%) [events]
  duration of the majority of adverse events: 15 to 90 min
  subjects with study-drug related Cough: 12%
  subjects with study-drug related Dizziness: 12%
  subjects with study-drug related Dry mouth: 12%
  subjects with study-drug related Dysgeusia: 8%
  subjects with study-drug related Dyspnoea (shortness of breath): 16%
  subjects with study-drug related Headache: 8%
  subjects with study-drug related Oropharyngeal discomfort: 40%
human
  average events per subject: 2
  probably study-drug related oropharyngeal discomfort (events): 4
  study-drug related paresthesia oral (events): 3
human, 2 mg/kg
  TEAE: Hypoaesthesia oral: 1 (14) [1] n (%) [events]
  TEAE: Paraesthesia oral: 3 (43) [3] n (%) [events]
human, iv
  average events per subject: 7
  severe and moderate AEs probably related to study drug: 1 severe and 2 moderate intensity AEs
  study-drug related application site coldness (occurrences): 2
  study-drug related dizziness (events): 6
  study-drug related headache (events): 5
  study-drug related peripheral coldness, palpitations, and chest discomfort, occurrences each: 2
  systolic BP in subject whose IV infusion was interrupted for hypotension: < 65 mmHg
human, iv, 2 mg/kg
  Number of Moderate or Severe TEAEs: 4
  Number of Related TEAEs: 35
  Number of Related, Moderate or Severe TEAEs: 4
  Number of SAEs: 0
  Number of Subjects with at least one Moderate or Severe TEAE: 2 (29) n (%)
  Number of Subjects with at least one Related TEAE: 7 (100) n (%)
  Number of Subjects with at least one Related, Moderate or Severe TEAE: 2 (29) n (%)
  Number of Subjects with at least one SAE: 0 n (%)
  Number of Subjects with at least one TEAE: 7 (100) n (%)
  Number of Treatment-Emergent Adverse Events: 49
  TEAE: Application site coldness: 2 (29) [2] n (%) [events]
  TEAE: Catheter site pain: 2 (29) [2] n (%) [events]
  TEAE: Chest discomfort: 1 (14) [3] n (%) [events]
  TEAE: Dizziness: 6 (86) [6] n (%) [events]
  TEAE: Fatigue: 2 (29) [2] n (%) [events]
  TEAE: Gastrointestinal disorders: 5 (71) [6] n (%) [events]
  TEAE: General disorders and administration site conditions: 4 (57) [13] n (%) [events]
  TEAE: Headache: 5 (71) [6] n (%) [events]
  TEAE: Nervous system disorders: 7 (100) [13] n (%) [events]
  TEAE: Peripheral coldness: 2 (29) [3] n (%) [events]
  TEAE: Respiratory, thoracic and mediastinal disorders: 2 (29) [3] n (%) [events]
  TEAE: Vascular disorders: 3 (43) [4] n (%) [events]
  fewer TEAEs with IH than IV: 4 fold
human, po
  remaining study-drug related events (cough, dysphonia, dyspnoea, oral hypoesthesia, chest discomfort): occurred once in 1 subject each
  AEs occurring more frequently than with placebo: oropharyngeal discomfort, shortness of breath (dyspnoea), cough and dry mouth
  dose dependence of incidence of AEs: appears not to be dose-dependent
  intensity of TEAEs: mild in intensity
  serious adverse events: No serious adverse events were reported
  tolerability of inhalation: well tolerated, and no subject interrupted the inhalation

Source: patent US20230092389A1, “UNIT DOSES, AEROSOLS, KITS, AND METHODS FOR TREATING HEART CONDITIONS BY PULMONARY ADMINISTRATION” (InCarda Therapeutics, Inc., priority 2017, published 2023)
